Laboratory results reported in patent publication US6524863B1, “High throughput HPLC method for determining Log P values” (Scynexis Chemistry & Automation, Inc., priority 1999, dated 2003).
Where two headings read alike, the source gives them in different places.

Columns and labels:
[1] = cited from earlier work
Isocratic HPLC Log P = settings: for Isocratic Log P: isocratic method, no details given
Source text: (§1) Isocratic data, measured at certain eluent compositions (typically as log k′x, for a given eluent composition X), can be used to calculate Log P data.

[2] = Gradient HPLC Log P determination from retention time (new method)
Procedure: (§2) An evaporated light scattering detector (Richard Scientific) and a platform LC mass spectrometer (Micromass) were used as detectors.
(§3) The mobile phase was a binary gradient of methanol/water. The stationary phase was a 4.6×50 mm column packed with 5 micron ODS-AQ. The injection size was 5 μL. The mobile phase gradient was adjusted to obtain a Log P nearly equal to the retention time on the HPLC column.
(§4) After 6.1 minutes, the column was set to re-equilibrate.
(§5) Retention times (X), shake flask log P (Y), slope and intercept from the above plot were used to calculate log P for these standards.
(§6) When log P was plotted versus the log of the capacity factor K for these standards, an following exponential curve was obtained, as shown in FIG. 3.
(§7) Using this exponential equation and HPLC retention times of these standards, Log P and Log K were calculated and compared with the retention times and literature Log P values.

physchem [3] = experiment: physchem
Procedure: as §2, §3, §4, §5, §6, §7

physchem [4] = experiment: physchem; remark: listed apart in the source
Source text: as §1

[5] = shake flask Log P values (lit.), Table 2
[6] = shake flask, literature, Table 3
[7] = shake flask, literature, Table 4
[8] = Log P calc. by slope, calculated from Log K (capacity factor) with exponential equation Y=0.6972e^1.5966X
[9] = New Method Calc. Log P Y = 1.009X + 0.029, calculated from average gradient HPLC retention time X (ODS-AQ 4.6×50 mm, methanol/water), linear fit
[10] = New Method Calc. Log P Y = 1.009X + 0.029

Row | chromatographic logP (Isocratic HPLC Log P) | chromatographic logP [2, 9] | Structure (SMILES) | chromatographic logP (physchem [3]; Log P calc. by slope) | chromatographic logP (physchem [3]; [10]) | chromatographic logP (physchem [4]) | further results
1 | 2.54 | 1.94 | CC(=O)c1ccccc1 [standard 6, acetophenone] |  |  |  | Lit. Log P [1, 5]: 2.13; Lit. Log P [1, 6]: 2.13; Lit. Log P [1, 7]: 2.13; chromatographic logP [2, 8]: 2.22
2 | 0.96 | 0.98 | OCc1ccccc1 [standard 4, benzyl alcohol] |  |  |  | 
3 |  |  | Cc1ccc(Cl)cc1 [standard 8, p-chloro toluene] | 3.74 | 3.74 | 3.57 | 
4 | 0.96 | 0.68 | CNC(=O)c1ccccc1 [standard 3, N-methyl benzamide] |  |  |  | Lit. Log P [1, 5]: 0.86; Lit. Log P [1, 6]: 0.86; Lit. Log P [1, 7]: 0.86; chromatographic logP [2, 8]: 0.75
5 |  |  | COc1ccc(C(c2ccc(OC)cc2)C(Cl)(Cl)Cl)cc1 [standard 15, methoxychlor] | 4.37 | 4.61 | 4.26 | 
6 | 0.41 | 0.56 | NC(=O)c1ccccc1 [standard 2, benzamide] |  |  |  | chromatographic logP [2, 8]: 0.58
7 |  |  | c1ccc2cc3ccccc3cc2c1 [standard 12, anthracene] | 4.27 |  | 4.46 | 
8 |  |  | Cc1ccc2cc(C)ccc2c1 [standard 11, 2,6-dimethyl napthalene] |  |  |  | Isocratic Log P (Isocratic HPLC Log P): 4.49
9 |  |  | c1ccc(-c2ccccc2)cc1 [standard 10, biphenyl] |  | 4.07 | 3.8 | Log P calc. by slope ([2]; calculated from Log K (capacity factor) with exponential equation Y=0.6972e^1.5966X): 3.98
10 | 4.31 | 4.33 | c1ccc(Sc2ccccc2)cc1 [standard 13, phenyl sulfide] |  |  |  | Lit. Log P [1, 5]: 4.45; Lit. Log P [1, 6]: 4.45; Lit. Log P [1, 7]: 4.45; chromatographic logP [2, 8]: 4.17
11 |  |  | Brc1ccccc1 [standard 7, bromobenzene] | 3.5 | 3.44 | 3.23 | 
12 |  |  | CCCN(CCC)c1c([N+](=O)[O-])cc(C(F)(F)F)cc1[N+](=O)[O-] [standard 14, trifluralin] | 4.57 | 4.88 | 5 | 
13 |  |  | ClC(Cl)=C(c1ccc(Cl)cc1)c1ccc(Cl)cc1 [standard 16, DDE] |  |  |  | Isocratic Log P (Isocratic HPLC Log P): 6.28
14 |  |  | CCOP(=S)(OCC)Oc1ccc([N+](=O)[O-])cc1 [standard 9, diethyl parathion] |  |  |  | Isocratic Log P (Isocratic HPLC Log P): 3.39
15 | -1.05 | 0.32 | O=c1cc[nH]c(=O)[nH]1 [standard 1, uracil] |  |  |  | 
